Measured values: patent publication US20100152434A1, “Protein Kinase-binding Nucleosides and Associated Methods” (priority 2007, published 2010)
Where two headings read alike, the source gives them in different places.

Assays:
[1] = test system: COLO 205; experiment: cells; settings: Homo sapiens, COLO 205
[2] = test system: U251; experiment: cells; settings: Homo sapiens, U-251
[3] = test system: NCI-H23; experiment: cells; settings: Homo sapiens, NCI-H23
[4] = test system: BT-549
[5] = test system: SF-268
[6] = test system: SN12C
[7] = test system: EKVX; experiment: cells; settings: Homo sapiens
[8] = test system: A549/ATCC; experiment: cells; settings: Homo sapiens, A549
[9] = test system: IGROV1; experiment: cells; settings: Homo sapiens, IGROV-1
[10] = test system: HCC-2998; settings: HCC-2993
[11] = test system: UACC-257; experiment: cells; settings: Homo sapiens, UACC-257
[12] = test system: LOX IMVI
[13] = test system: SF-295
[14] = test system: KM12; experiment: cells; settings: Homo sapiens, KM12
[15] = test system: SK-MEL-2
[16] = test system: A498
[17] = test system: SK-OV-3
[18] = test system: 788-0; settings: 786-0
[19] = test system: MDA-MB-231/ATCC; experiment: cells; settings: Homo sapiens, MDA-MB-231
[20] = test system: EKVX
[21] = test system: SK-OV-3; experiment: cells; settings: Homo sapiens, SK-OV-3
[22] = test system: MALME-3M
[23] = test system: HOP-62; settings: HOP-52
[24] = test system: SNB-75
[25] = test system: HCT-116; experiment: cells; settings: Homo sapiens, HCT-116
[26] = Log10 Concentration −4.0, Molar
[27] = Log10 Concentration −5.0, Molar
[28] = Log10 Concentration −6.0, Molar
[29] = Log10 Concentration −7.0, Molar
[30] = Log10 Concentration −8.0, Molar

## CNC(=O)NC[C@H]1O[C@@H](n2cnc3c(NC(=O)Nc4ccccc4)ncnc32)C(O[Si](C)(C)C(C)(C)C)[C@H]1O[Si](C)(C)C(C)(C)C (stereo partly shown) [Compound 25, 2′,3′-Bis-O-(tert-butyldimethylsilyl)-5-deoxy-5′-[(N-methylcarbamoyl)amino]-N^6-(N-phenylcarbamoyl)adenosine]
[1]
  GI50: 1.59 µM
  IC50: 5.98 µM
[2]
  GI50: 2.96 µM
  IC50: > 100 µM
[3]
  GI50: 3.17 µM
  IC50: 85 µM
[4]
  TGI: 9.18E−6 Molar
[4]; [26]
  Percent Growth: −35%
[4]; [27]
  Percent Growth: −10%
[4]; [28]
  Percent Growth: 103%
[4]; [29]
  Percent Growth: 112%
[4]; [30]
  Percent Growth: 113%
[5]
  TGI: 1.40E−5 Molar
[5]; [26]
  Percent Growth: 45%
[5]; [27]
  Percent Growth: 8%
[5]; [28]
  Percent Growth: 102%
[5]; [29]
  Percent Growth: 106%
[5]; [30]
  Percent Growth: 104%
[6]
  TGI: 3.38E−6 Molar
[6]; [26]
  Percent Growth: −90%
[6]; [27]
  Percent Growth: −87%
[6]; [28]
  Percent Growth: 98%
[6]; [29]
  Percent Growth: 100%
[6]; [30]
  Percent Growth: 100%
[7]
  GI50: 3.7 µM
  IC50: > 100 µM
[8]
  GI50: 2.9 µM
  IC50: > 100 µM
[9]
  GI50: 2.74 µM
  IC50: > 100 µM
[10]
  TGI: 3.75E−6 Molar
[10]; Log10 Concentration −4.0 Molar
  Percent Growth: −91%
[10]; Log10 Concentration −5.0 Molar
  Percent Growth: −79%
[10]; Log10 Concentration −6.0 Molar
  Percent Growth: 106%
[10]; Log10 Concentration −7.0 Molar
  Percent Growth: 93%
[10]; Log10 Concentration −8.0 Molar
  Percent Growth: 100%
[11]
  GI50: 3.78 µM
  IC50: > 100 µM
[12]
  TGI: 3.36E−6 Molar
[12]; [26]
  Percent Growth: −77%
[12]; [27]
  Percent Growth: −89%
[12]; [28]
  Percent Growth: 98%
[12]; [29]
  Percent Growth: 101%
[12]; [30]
  Percent Growth: 102%
[13]
  TGI: 3.18E−5 Molar
[13]; [26]
  Percent Growth: −7%
[13]; [27]
  Percent Growth: 7%
[13]; [28]
  Percent Growth: 111%
[13]; [29]
  Percent Growth: 107%
[13]; [30]
  Percent Growth: 103%
[14]
  GI50: 2.13 µM
  IC50: 8.05 µM
[15]
  TGI: 5.54E−6 Molar
[15]; [26]
  Percent Growth: −67%
[15]; [27]
  Percent Growth: −35%
[15]; [28]
  Percent Growth: 105%
[15]; [29]
  Percent Growth: 110%
[15]; [30]
  Percent Growth: 106%
[16]
  TGI: 4.06E−6 Molar
[16]; [26]
  Percent Growth: −75%
[16]; [27]
  Percent Growth: −39%
[16]; [28]
  Percent Growth: 90%
[16]; [29]
  Percent Growth: 97%
[16]; [30]
  Percent Growth: 92%
[17]
  TGI: >1.00E−4 Molar
[17]; [26]
  Percent Growth: 5%
[17]; [27]
  Percent Growth: 39%
[17]; [28]
  Percent Growth: 107%
[17]; [29]
  Percent Growth: 113%
[17]; [30]
  Percent Growth: 106%
[18]
  TGI: 3.71E−6 Molar
[18]; Log10 Concentration −4.0 Molar
  Percent Growth: −80%
[18]; Log10 Concentration −5.0 Molar
  Percent Growth: −83%
[18]; Log10 Concentration −6.0 Molar
  Percent Growth: 110%
[18]; Log10 Concentration −7.0 Molar
  Percent Growth: 113%
[18]; Log10 Concentration −8.0 Molar
  Percent Growth: 103%
[19]
  GI50: 2.81 µM
  IC50: 28.3 µM
[20]
  TGI: 3.06E−5 Molar
[20]; [26]
  Percent Growth: −9%
[20]; [27]
  Percent Growth: 9%
[20]; [28]
  Percent Growth: 104%
[20]; [29]
  Percent Growth: 111%
[20]; [30]
  Percent Growth: 106%
[21]
  GI50: 5.88 µM
  IC50: > 100 µM
[22]
  TGI: 9.84E−6 Molar
[22]; [26]
  Percent Growth: −48%
[22]; [27]
  Percent Growth: −1%
[22]; [28]
  Percent Growth: 96%
[22]; [29]
  Percent Growth: 88%
[22]; [30]
  Percent Growth: 105%
[23]
  TGI: 1.71E−5 Molar
[23]; Log10 Concentration −4.0 Molar
  Percent Growth: −55%
[23]; Log10 Concentration −5.0 Molar
  Percent Growth: 25%
[23]; Log10 Concentration −6.0 Molar
  Percent Growth: 105%
[23]; Log10 Concentration −7.0 Molar
  Percent Growth: 108%
[23]; Log10 Concentration −8.0 Molar
  Percent Growth: 102%
[24]
  TGI: 3.41E−5 Molar
[24]; [26]
  Percent Growth: −12%
[24]; [27]
  Percent Growth: 14%
[24]; [28]
  Percent Growth: 73%
[24]; [29]
  Percent Growth: 95%
[24]; [30]
  Percent Growth: 94%
[25]
  GI50: 2.11 µM
  IC50: 8.8 µM
